Assay [1] concerns the target T1, ALDH3A1 (Homo sapiens, UniProt P30838).
T1 sequence (P30838 1-453): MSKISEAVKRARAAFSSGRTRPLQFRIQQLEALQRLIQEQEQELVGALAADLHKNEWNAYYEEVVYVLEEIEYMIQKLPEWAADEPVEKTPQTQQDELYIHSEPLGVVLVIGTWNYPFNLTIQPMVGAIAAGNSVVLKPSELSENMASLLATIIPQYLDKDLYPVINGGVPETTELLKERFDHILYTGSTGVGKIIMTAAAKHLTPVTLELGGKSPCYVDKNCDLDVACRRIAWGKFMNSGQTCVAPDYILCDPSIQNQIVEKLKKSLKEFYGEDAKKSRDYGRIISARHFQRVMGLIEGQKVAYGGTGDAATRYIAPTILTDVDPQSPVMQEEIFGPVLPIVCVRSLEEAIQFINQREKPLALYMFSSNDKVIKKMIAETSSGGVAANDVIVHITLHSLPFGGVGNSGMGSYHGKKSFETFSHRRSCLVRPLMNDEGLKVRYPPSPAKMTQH
Kind of assay: ALDH3A1 dehydrogenase activity. Format: biochemical. As to conditions: read-out: IC50 ALDH3A1; 300 μM benzaldehyde, 300 μM NADP+, pH 7.5.

Assay [2] has as its target T2, ALDH1A1 (Homo sapiens, UniProt P00352).
T2 sequence (P00352 1-501): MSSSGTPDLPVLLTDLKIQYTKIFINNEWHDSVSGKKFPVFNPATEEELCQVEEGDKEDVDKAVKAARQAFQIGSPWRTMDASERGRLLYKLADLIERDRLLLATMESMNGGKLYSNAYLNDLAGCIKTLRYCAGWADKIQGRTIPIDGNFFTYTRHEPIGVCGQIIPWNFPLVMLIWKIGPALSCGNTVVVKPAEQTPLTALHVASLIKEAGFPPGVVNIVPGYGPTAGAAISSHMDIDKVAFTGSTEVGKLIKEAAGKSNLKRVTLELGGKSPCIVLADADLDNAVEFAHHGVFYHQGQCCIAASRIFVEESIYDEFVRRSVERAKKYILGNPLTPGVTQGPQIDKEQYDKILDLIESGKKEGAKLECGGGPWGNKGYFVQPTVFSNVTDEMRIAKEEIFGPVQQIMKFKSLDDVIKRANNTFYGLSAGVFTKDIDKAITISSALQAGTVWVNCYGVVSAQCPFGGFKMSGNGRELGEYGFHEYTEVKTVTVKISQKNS
Kind of assay: ALDH1A1 dehydrogenase activity, NADH formation at 340 nm. Format: biochemical. As to conditions: read-out: IC50 ALDH1A1; 100 μM propionaldehyde, 200 μM NAD+, 1% DMSO, pH 7.5, 25 °C.

Assay [3] addresses T3, ALDH2 (Homo sapiens, UniProt P05091).
T3 sequence (P05091 18-517): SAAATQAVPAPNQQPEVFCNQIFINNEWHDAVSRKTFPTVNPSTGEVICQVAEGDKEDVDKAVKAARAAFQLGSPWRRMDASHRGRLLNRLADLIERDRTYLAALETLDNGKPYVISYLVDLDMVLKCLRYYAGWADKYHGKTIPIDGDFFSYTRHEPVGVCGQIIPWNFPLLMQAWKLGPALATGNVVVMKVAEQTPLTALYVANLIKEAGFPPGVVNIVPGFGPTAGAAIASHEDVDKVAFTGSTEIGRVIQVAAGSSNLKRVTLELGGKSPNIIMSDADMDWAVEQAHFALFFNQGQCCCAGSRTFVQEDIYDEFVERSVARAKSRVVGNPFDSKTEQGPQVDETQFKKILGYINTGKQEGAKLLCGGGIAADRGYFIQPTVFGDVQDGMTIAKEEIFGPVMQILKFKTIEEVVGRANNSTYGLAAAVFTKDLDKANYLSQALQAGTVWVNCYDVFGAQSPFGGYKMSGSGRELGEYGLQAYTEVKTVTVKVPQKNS
The settings on record: 1 mM propionaldehyde.

The target in assay [4] is T3, ALDH2. The settings on record: prior work; cited from earlier work.
The target in assay [5] is T4, ALDH1L1 (rat) (Rattus norvegicus, UniProt P28037).
T4 sequence (P28037 1-902): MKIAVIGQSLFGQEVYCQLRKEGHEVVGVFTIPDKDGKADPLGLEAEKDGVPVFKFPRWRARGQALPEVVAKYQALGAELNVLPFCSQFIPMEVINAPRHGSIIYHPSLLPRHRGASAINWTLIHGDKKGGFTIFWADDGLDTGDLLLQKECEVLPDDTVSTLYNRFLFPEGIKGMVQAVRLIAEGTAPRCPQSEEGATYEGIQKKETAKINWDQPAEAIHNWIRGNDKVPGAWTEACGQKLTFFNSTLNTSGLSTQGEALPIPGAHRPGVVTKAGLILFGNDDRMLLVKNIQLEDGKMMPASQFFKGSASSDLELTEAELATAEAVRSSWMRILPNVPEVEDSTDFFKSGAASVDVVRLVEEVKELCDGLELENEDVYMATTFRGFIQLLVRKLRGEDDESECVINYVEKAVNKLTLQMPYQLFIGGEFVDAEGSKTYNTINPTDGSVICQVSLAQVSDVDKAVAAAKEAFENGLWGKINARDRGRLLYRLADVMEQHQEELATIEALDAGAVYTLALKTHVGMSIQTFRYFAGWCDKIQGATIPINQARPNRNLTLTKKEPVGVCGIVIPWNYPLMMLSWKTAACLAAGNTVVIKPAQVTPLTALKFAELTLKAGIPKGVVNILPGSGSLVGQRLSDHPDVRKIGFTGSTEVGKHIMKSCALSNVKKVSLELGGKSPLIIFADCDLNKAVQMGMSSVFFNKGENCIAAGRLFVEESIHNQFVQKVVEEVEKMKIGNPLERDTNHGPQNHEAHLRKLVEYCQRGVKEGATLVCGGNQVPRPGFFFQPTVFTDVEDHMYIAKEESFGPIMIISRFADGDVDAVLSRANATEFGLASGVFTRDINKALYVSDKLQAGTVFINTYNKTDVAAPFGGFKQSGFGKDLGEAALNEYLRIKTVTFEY
Kind of assay: ALDH1L1 dehydrogenase activity, NADPH formation at 340 nm. Format: biochemical. The settings on record: read-out: IC50 ALDH1L1 (rat); 4 mM propionaldehyde, 500 μM NADP+.

The text below walks through data of article PMC5765548 (Journal of medicinal chemistry, 2017).

As a reminder, the IC50 is the concentration that inhibits the measured activity by half.

SMILES strings stand for the structures.

`Cc1oc2cc3oc(=O)c(C)c(C)c3cc2c1C` [Compound 3]: the IC50 in assay [1], in assay [2] and in assay [5] was above 100 µM in each case. For the same compound, in assay [3], the “Mode of inhibition of ALDH2 versus varied NAD+” value is on record as “competitive”. Also, the “Mode of inhibition of ALDH2 with respect to varied propionaldehyde” value in assay [4] is reported as “non-competitive (mixed-type)”.
